Reference: US20240254118A1, “PRMT5 INHIBITORS AND USES THEREOF” (Gilead Sciences, Inc., priority 2022, published 2024)

Test system: HCT116 MTAP-deleted cells
Experiment: Cell viability assay (CellTiter-Glo, 7 days), HCT116 MTAP-deleted
Details: Homo sapiens, HCT-116, 168 h

Compound	CC50 [nM]
Nc1nc2ccc(C(=O)N(Cc3nc4ccc(Cl)cc4[nH]3)N3CCCC3=O)cc2c2ccccc12 [Example 124, 6-amino-N-((6-chloro-1H-benzo[d]imidazol-2-yl)methyl)-N-(2-oxopyrrolidin-1-yl)phenanthridine-2-carboxamide]	100 to 1000
CC(=O)N(C)N(Cc1ccc(-c2cnc(C(F)(F)F)s2)cc1F)C(=O)c1ccc2nc(N)c3cnn(C)c3c2c1 [Example 217, N′-acetyl-4-amino-N-(2-fluoro-4-(2-(trifluoromethyl)thiazol-5-yl)benzyl)-N′,1-dimethyl-1H-pyrazolo[4,3-c]quinoline-8-carbohydrazide]	< 100
CC(=O)N(C)N(Cc1ccc(-c2ccc(C(F)(F)F)cn2)cc1F)C(=O)c1ccc2nc(N)c3cnn(C)c3c2c1 [Example 224, N′-acetyl-4-amino-N-(2-fluoro-4-(5-(trifluoromethyl)pyridin-2-yl)benzyl)-N′,1-dimethyl-1H-pyrazolo[4,3-c]quinoline-8-carbohydrazide]	< 100
CC(=O)N(C)N(Cc1ccc(-c2cc(C(F)(F)F)ccn2)cc1F)C(=O)c1ccc2nc(N)c3cnn(C)c3c2c1 [Example 225, N′-acetyl-4-amino-N-(2-fluoro-4-(4-(trifluoromethyl)pyridin-2-yl)benzyl)-N′,1-dimethyl-1H-pyrazolo[4,3-c]quinoline-8-carbohydrazide]	< 100
CC(=O)N(C)N(Cc1ccc(-c2cnoc2)cc1F)C(=O)c1ccc2nc(N)c3cnn(C)c3c2c1 [Example 227, N′-acetyl-4-amino-N-(2-fluoro-4-(isoxazol-4-yl)benzyl)-N′,1-dimethyl-1H-pyrazolo[4,3-c]quinoline-8-carbohydrazide]	< 100
CC(=O)N(C)N(Cc1ccc(-c2ccc(C(F)(F)F)s2)cc1F)C(=O)c1ccc2nc(N)c3cnn(C)c3c2c1 [Example 237, N′-acetyl-4-amino-N-(2-fluoro-4-(5-(trifluoromethyl)thiophen-2-yl)benzyl)-N′,1-dimethyl-1H-pyrazolo[4,3-c]quinoline-8-carbohydrazide]	< 100
CN(C(=O)C1CC1)N(Cc1ccc(-c2ccsn2)cc1F)C(=O)c1ccc2nc(N)c3cnn(C)c3c2c1 [Example 239, 4-amino-N′-(cyclopropanecarbonyl)-N-(2-fluoro-4-(isothiazol-3-yl)benzyl)-N′,1-dimethyl-1H-pyrazolo[4,3-c]quinoline-8-carbohydrazide]	< 100
CC(=O)N(C)N(Cc1ccc(-c2cccnc2)cc1F)C(=O)c1ccc2nc(N)c3cnn(C)c3c2c1 [Example 241, N′-acetyl-4-amino-N-(2-fluoro-4-(pyridin-3-yl)benzyl)-N′,1-dimethyl-1H-pyrazolo[4,3-c]quinoline-8-carbohydrazide]	< 100
CC(=O)N(C)N(Cc1ccc(-c2cncs2)cc1F)C(=O)c1ccc2nc(N)c3cnn(C)c3c2c1 [Example 245, N′-acetyl-4-amino-N-(2-fluoro-4-(thiazol-5-yl)benzyl)-N′,1-dimethyl-1H-pyrazolo[4,3-c]quinoline-8-carbohydrazide]	< 100
CC(=O)N(C)N(Cc1ccc(-c2cnn(C3(C)CC3)c2)cc1F)C(=O)c1ccc2nc(N)c3cnn(C)c3c2c1 [Example 247, N′-acetyl-4-amino-N-(2-fluoro-4-(1-(1-methylcyclopropyl)-1H-pyrazol-4-yl)benzyl)-N′,1-dimethyl-1H-pyrazolo[4,3-c]quinoline-8-carbohydrazide]	< 100
CC(=O)N(C)N(Cc1ccc(-c2cnn(C(F)(F)F)c2)cc1C#N)C(=O)c1ccc2nc(N)c3cnn(C)c3c2c1 [Example 251, N′-acetyl-4-amino-N-(2-cyano-4-(1-(trifluoromethyl)-1H-pyrazol-4-yl)benzyl)-N′,1-dimethyl-1H-pyrazolo[4,3-c]quinoline-8-carbohydrazide]	< 100
CC(=O)N(C)N(Cc1ccc(-c2cnn(C(F)F)c2)cc1C#N)C(=O)c1ccc2nc(N)c3cnn(C)c3c2c1 [Example 252, N′-acetyl-4-amino-N-(2-cyano-4-(1-(difluoromethyl)-1H-pyrazol-4-yl)benzyl)-N′,1-dimethyl-1H-pyrazolo[4,3-c]quinoline-8-carbohydrazide]	< 100
[2H]C([2H])([2H])N(C(=O)C1CC1)N(Cc1ncc(C(F)(F)F)cc1F)C(=O)c1ccc2nc(N)c3cnn(C)c3c2c1 [Example 268, 4-amino-N′-(cyclopropanecarbonyl)-N-((3-fluoro-5-(trifluoromethyl)pyridin-2-yl)methyl)-1-methyl-N′-(methyl-d3)-1H-pyrazolo[4,3-c]quinoline-8-carbohydrazide]	< 100
[2H]C([2H])([2H])N(C(C)=O)N(Cc1ccc(C(F)(F)F)cc1F)C(=O)c1ccc2nc(N)c3cnn(C)c3c2c1 [Example 269, N′-acetyl-4-amino-N-(2-fluoro-4-(trifluoromethyl)benzyl)-1-methyl-N′-(methyl-d3)-1H-pyrazolo[4,3-c]quinoline-8-carbohydrazide]	< 100
CC(=O)N(C)N(Cc1cccc2ccoc12)C(=O)c1ccc2nc(N)c3cnn(C)c3c2c1 [Example 273, N′-acetyl-4-amino-N-(benzofuran-7-ylmethyl)-N′,1-dimethyl-1H-pyrazolo[4,3-c]quinoline-8-carbohydrazide]	< 100
CN(C(=O)C1CC1)N(Cc1ccc2c(c1)OC(F)(F)O2)C(=O)c1cc2c(cc1F)nc(N)c1cnn(C)c12 [Example 282, 4-amino-N′-(cyclopropanecarbonyl)-N-((2,2-difluorobenzo[d][1,3]dioxol-5-yl)methyl)-7-fluoro-N′,1-dimethyl-1H-pyrazolo[4,3-c]quinoline-8-carbohydrazide]	< 100
Cn1ncc2c(N)nc3cc(F)c(C(=O)N(Cc4ccc(C(F)(F)F)cn4)N4CCOC5(CC5)C4)cc3c21 [Example 284, 4-amino-7-fluoro-1-methyl-N-(4-oxa-7-azaspiro[2.5]octan-7-yl)-N-((5-(trifluoromethyl)pyridin-2-yl)methyl)-1H-pyrazolo[4,3-c]quinoline-8-carboxamide]	< 100
Cn1ncc2c(N)nc3ccc(C(=O)N(Cc4ccc(C(F)(F)F)cn4)N4CCOC5(CC5)C4)cc3c21 [Example 285, 4-amino-1-methyl-N-(4-oxa-7-azaspiro[2.5]octan-7-yl)-N-((5-(trifluoromethyl)pyridin-2-yl)methyl)-1H-pyrazolo[4,3-c]quinoline-8-carboxamide]	100 to 1000
CN(C(=O)C1CC1)N(Cc1ccc(OC(F)F)cn1)C(=O)c1cc2c(cc1F)nc(N)c1cnn(C)c12 [Example 290, 4-amino-N′-(cyclopropanecarbonyl)-N-((5-(difluoromethoxy)pyridin-2-yl)methyl)-7-fluoro-N′,1-dimethyl-1H-pyrazolo[4,3-c]quinoline-8-carbohydrazide]	< 100
CN(C(=O)C1CC1)N(Cc1ccc(OC(F)F)cn1)C(=O)c1ccc2nc(N)c3cnn(C)c3c2c1 [Example 291, 4-amino-N′-(cyclopropanecarbonyl)-N-((5-(difluoromethoxy)pyridin-2-yl)methyl)-N′,1-dimethyl-1H-pyrazolo[4,3-c]quinoline-8-carbohydrazide]	< 100
CN(C(=O)C1CC1)N(Cc1ccc(-c2ccn(C(F)F)n2)cc1F)C(=O)c1ccc2nc(N)c3cnn(C)c3c2c1 [Example 312, 4-amino-N′-(cyclopropanecarbonyl)-N-(4-(1-(difluoromethyl)-1H-pyrazol-3-yl)-2-fluorobenzyl)-N′,1-dimethyl-1H-pyrazolo[4,3-c]quinoline-8-carbohydrazide]	< 100
COc1c(CN(C(=O)c2ccc3nc(N)c4cnn(C)c4c3c2)N(C)C(=O)C2CC2)ccc(Cl)c1F [Example 313, 4-amino-N-(4-chloro-3-fluoro-2-methoxybenzyl)-N′-(cyclopropanecarbonyl)-N′,1-dimethyl-1H-pyrazolo[4,3-c]quinoline-8-carbohydrazide]	< 100
CN(C(=O)C1CC1)N(Cc1cc(F)c(-c2cnn(C(F)F)c2)cc1F)C(=O)c1ccc2nc(N)c3cnn(C)c3c2c1 [Example 314, 4-amino-N′-(cyclopropanecarbonyl)-N-(4-(1-(difluoromethyl)-1H-pyrazol-4-yl)-2,5-difluorobenzyl)-N′,1-dimethyl-1H-pyrazolo[4,3-c]quinoline-8-carbohydrazide]	< 100
COCc1cc(C(F)(F)F)ccc1CN(C(=O)c1ccc2nc(N)c3cnn(C)c3c2c1)N(C)C(=O)C1CC1 [Example 316, 4-amino-N′-(cyclopropanecarbonyl)-N-(2-(methoxymethyl)-4-(trifluoromethyl)benzyl)-N′,1-dimethyl-1H-pyrazolo[4,3-c]quinoline-8-carbohydrazide]	< 100
CN(C(=O)C1CC1)N(Cc1ccc(OC(F)F)cc1F)C(=O)c1ccc2nc(N)c3cnn(C)c3c2c1 [Example 317, 4-amino-N′-(cyclopropanecarbonyl)-N-(4-(difluoromethoxy)-2-fluorobenzyl)-N′,1-dimethyl-1H-pyrazolo[4,3-c]quinoline-8-carbohydrazide]	< 100
Cn1ncc2c(N)nc3ccc(C(=O)N(Cc4ccc(C(F)(F)F)cn4)N4CC5(CC5)COC4=O)cc3c21 [Example 319, 4-amino-1-methyl-N-(6-oxo-5-oxa-7-azaspiro[2.5]octan-7-yl)-N-((5-(trifluoromethyl)pyridin-2-yl)methyl)-1H-pyrazolo[4,3-c]quinoline-8-carboxamide]	< 100
Cn1ncc2c(N)nc3cc(F)c(C(=O)N(Cc4ccc(C(F)(F)F)cn4)N4CC5(CC5)COC4=O)cc3c21 [Example 320, 4-amino-7-fluoro-1-methyl-N-(6-oxo-5-oxa-7-azaspiro[2.5]octan-7-yl)-N-((5-(trifluoromethyl)pyridin-2-yl)methyl)-1H-pyrazolo[4,3-c]quinoline-8-carboxamide]	< 100
CC(=O)N(C)N(Cc1ccc(-c2ccn(C(F)(F)F)n2)nc1F)C(=O)c1ccc2nc(N)c3cnn(C)c3c2c1 [Example 346, N′-acetyl-4-amino-N-((2-fluoro-6-(1-(trifluoromethyl)-1H-pyrazol-3-yl)pyridin-3-yl)methyl)-N′,1-dimethyl-1H-pyrazolo[4,3-c]quinoline-8-carbohydrazide]	< 100
